Test results reported in US20240327415A1, “Multicomponent Complexes, Including Salts, Crystalline Forms, and Hydrates and Solvates of ENT1 Inhibitors” (iTeos Belgium SA, priority 2023, published 2024).
Counter-ions that a name gives are not always drawn.

Test: solid form screen of Compound 1 di(hydrogen sulfate), XRPD damp and dried (Example 1)
Format: physicochemical
Experimental: Example 1—Solid Form Screen of Compound 1 Di(Hydrogen Sulfate): Amorphous Compound 1 di(hydrogen sulfate) (made in accordance with Example 7) was prepared and then subject to various crystallization techniques—temperature cycling, evaporation, crash cooling, solvent drop grinding, anti-solvent addition—each of which is described in more detail below. In addition, a reactive crystallization experiment was also conducted on Compound 1, which is a free base.
Temperature Cycling: Approximately 20 mg of Amorphous Compound 1 di(hydrogen sulfate) was added to 24×1.5 mL screw cap vials. Into each vial, the appropriate solvent system was added in 50 μL aliquots in an attempt to form slurries at 40° C. When the addition was completed, the samples were temperature-cycled between 40° C. and 5° C., using 0.1° C./min ramp and 1 hr hold between steps. After about 24 hours of cycling, anti-solvent addition at 40° C. was carried out on samples that were clear solutions. Temperature cycling was continued for all samples for a total of 48 hours. After 48 hours of cycling, any solids present in the samples were isolated via centrifugation and analyzed damp by XRPD to assess the polymorphic form.
Evaporation: Solutions of Amorphous Compound 1 di(hydrogen sulfate) were prepared in different solvent systems. […] The solutions were then left open to allow the solvents to evaporate at ambient. Solids observed post-evaporation were analyzed by XRPD.
Crash Cooling: Solutions of Amorphous Compound 1 di(hydrogen sulfate) were prepared in different solvent systems. […] The solutions were placed in a refrigerator to crash-cool the samples to about 5° C. for 48 hours. Solids observed at this point were analyzed by XRPD. The rest of the samples where no solids were observed were placed in a freezer to allow the samples to crash-cool further to about −20° C. After about 48 hours in the freezer, samples with solids were analyzed by XRPD. For samples where solids were still not observed, anti-solvent addition was carried out at 5° C., and the samples returned to the freezer. After 4 days in the freezer post-ASA, any solids present were analyzed by XRPD.
Solvent Drop Grinding: 15-20 mg of Amorphous Compound 1 di(hydrogen sulfate) was added to 24×2 mL bead mill tubes. Into each tube, 5 μL of the appropriate solvent system was added at ambient. Two small stainless-steel beads were placed in each tube, and the samples were milled using the following program: (1) Speed=5000 rpm; (2) Cycle=10×90 s; (3) Pause=10 s; (4) Repeat=duplicate. For samples where dissolution was suspected during the milling, additional amorphous material was added, and the milling program repeated. When the milling program was completed, the residual solids were analyzed by XRPD.
Anti-solvent Addition: 20-25 mg of Amorphous Compound 1 di(hydrogen sulfate) was added to 24×1.5 mL screw cap vials. Into each vial, 100 μL of the appropriate solvent system was added at 25° C. to form solutions. Where complete dissolution was not observed, an additional 400 μL of solvent was added and the samples were stirred at 50° C. to allow further dissolution. The mother liquors of these samples were needle-filtered into a new set of vials. To all the solutions, anti-solvent addition was carried out at 25° C. Where sufficient precipitation was observed post-ASA, these were isolated and analyzed by XRPD. Where thin slurries or clear solutions were observed post-ASA, these were cooled to 5° C. at 0.1° C./min and stirred at 5° C. for ca 18 h. Any solids present were isolated and analyzed by XRPD.
Reactive Crystallization: 15-20 mg of Compound 1 was added to 18×1.5 mL screw cap vials. Into each vial, 100 μL of the appropriate solvent system was added at 40° C. 2.05 mole equiv. of H2SO4 was also added to the vials as solutions in 100 μL of the respective solvent systems. The samples were stirred at 40° C. for another approximately 30 mins, cooled to 5° C. at 0.1° C./min and left stirring at 5° C. for about 18 h. […]

COc1cc(C(=O)O[C@@H]2CCCOc3cc(cc(OC)c3OC)C(=O)NCCCN3CCCN(CC2)CC3)cc(OC)c1OC [Compound 1 di(hydrogen sulfate)]
2, PO: XRPD (Damp) Crash cooling (2-propanol:water (75:25% v/v)) | XRPD (Dried) Crash cooling (2-propanol:water (75:25% v/v))
6+, PC: XRPD (Dried) Evaporation (Acetonitrile)
2, PC: XRPD (Damp) Evaporation (1,4-Dioxane) | XRPD (Damp) Temp cycling (1,4-Dioxane) | XRPD (Dried) Evaporation (1,4-Dioxane) | XRPD (Dried) Temp cycling (1,4-Dioxane) | XRPD (Damp) Anti-solvent addition (1-Propanol) | XRPD (Damp) Solvent drop grinding (1-Propanol) | XRPD (Dried) Anti-solvent addition (1-Propanol) | XRPD (Damp) Evaporation (2-Methyl THF) | XRPD (Dried) Evaporation (2-Methyl THF) | XRPD (Damp) Evaporation (2-Propanol) | XRPD (Damp) Evaporation (2-propanol:water (50:50% v/v)) | XRPD (Dried) Evaporation (2-propanol:water (50:50% v/v)) | XRPD (Damp) Reactive cryst. (2-propanol:water (75:25% v/v)) | XRPD (Damp) Evaporation (Acetone) | XRPD (Damp) Temp cycling (Acetone) | XRPD (Dried) Evaporation (Acetone) | XRPD (Dried) Temp cycling (Acetone) | XRPD (Dried) Evaporation (Ethanol:water (90:10% v/v)) | XRPD (Damp) Temp cycling (MEK) | XRPD (Dried) Temp cycling (MEK) | XRPD (Damp) Solvent drop grinding (Methanol) | XRPD (Dried) Solvent drop grinding (Methanol) | XRPD (Damp) Evaporation (THF) | XRPD (Dried) Evaporation (THF)
Am: XRPD (Dried) Anti-solvent addition (1,4-Dioxane) | XRPD (Dried) Solvent drop grinding (1,4-Dioxane) | XRPD (Dried) Temp cycling (1-Propanol) | XRPD (Dried) Anti-solvent addition (2-Methyl THF) | XRPD (Dried) Solvent drop grinding (2-Methyl THF) | XRPD (Dried) Temp cycling (2-Methyl THF) | XRPD (Dried) Anti-solvent addition (2-Propanol) | XRPD (Dried) Reactive cryst. (2-Propanol) | XRPD (Dried) Temp cycling (2-Propanol) | XRPD (Dried) Anti-solvent addition (Acetone) | XRPD (Dried) Solvent drop grinding (Acetone) | XRPD (Dried) Solvent drop grinding (DCM) | XRPD (Dried) Anti-solvent addition (DMF) | XRPD (Dried) Solvent drop grinding (DMF) | XRPD (Dried) Anti-solvent addition (DMSO) | XRPD (Dried) Solvent drop grinding (DMSO) | XRPD (Dried) Reactive cryst. (Ethyl Acetate) | XRPD (Dried) Solvent drop grinding (Ethyl Acetate) | XRPD (Dried) Temp cycling (Ethyl Acetate) | XRPD (Dried) Solvent drop grinding (Isopropyl Acetate) | XRPD (Dried) Temp cycling (Isopropyl Acetate) | XRPD (Dried) Solvent drop grinding (MEK) | XRPD (Dried) Reactive cryst. (Methanol) | XRPD (Dried) Temp cycling (Methanol) | XRPD (Dried) Reactive cryst. (MiBK) | XRPD (Dried) Solvent drop grinding (MiBK) | XRPD (Dried) Temp cycling (MiBK) | XRPD (Dried) Solvent drop grinding (THF) | XRPD (Dried) Solvent drop grinding (Toluene) | XRPD (Dried) Temp cycling (Toluene)
6, PC: XRPD (Damp) Evaporation (Acetonitrile)
